From US8076286B2, “Antimicrobial peptides and use thereof” (priority 2006, dated 2011)
Ends that are not written are not given here.

Legend:
Erythrocytes = experiment: Hemolysis assay; format: cell-based; details: % of Triton X-100 induced hemolysis; 1 h at 37° C.; peptides 3-60 μM, concentration for table not stated
Description: EDTA-blood was centrifuged at 800 g for 10 min, whereafter plasma and buffy coat were removed. The erythrocytes were washed three times and resuspended in 5% PBS, pH 7.4. The cells were then incubated with end-over-end rotation for 1 h at 37° C. in the presence of peptides (3-60 μM). 2% Triton X-100 (Sigma-Aldrich) served as positive control. The samples were then centrifuged at 800 g for 10 min. The absorbance of hemoglobin release was measured at λ 540 nm and is in the plot expressed as % of TritonX-100 induced hemolysis (FIG. 2).

[1] = Liposome leakage assay (carboxyfluorescein), PA liposomes; format: biochemical; details: dioleoylphosphatidylcholine 30/dioleoylphosphatidic acid 30/cholesterol 40 mol % liposomes, unit not in table; for CF leakage PA + NaCl: 10 mM Tris pH 7.4, with 150 mM NaCl; for CF leakage PA − NaCl: 10 mM Tris pH 7.4, without NaCl
Description: (§1) Dry lipid films were prepared by dissolving either dioleoylphosphatidylcholine (Avanti Polar Lipids, Alabaster, Ala.) (60 mol %) and cholesterol (Sigma, St Louis, Mo.) (40 mol %), or dioleoylphosphatidylcholine (30 mol %), dioleoylphosphatidic acid (Avanti Polar Lipids, Alabaster, Ala.) (30 mol %) and cholesterol (40 mol %) in chloroform, and then removing the solvent by evaporation under vacuum overnight. Subsequently, buffer solution containing 10 mM Tris, pH 7.4, either with or without additional 150 mM NaCl, was added together with 0.1 M carboxyfluorescein (CF) (Sigma, St Louis, Mo.). After hydration, the lipid mixture was subjected to eight freeze-thaw cycles consisting of freezing in liquid nitrogen and heating to 60° C. Unilamellar liposomes with a diameter of about 130 nm (as found with cryo-TEM; results not shown) were generated by multiple extrusions through polycarbonate filters (pore size 100 nm) mounted in a LipoFast miniextruder (Avestin, Ottawa, Canada). Untrapped carboxyfluorescein was then removed by filtration through two subsequent Sephadex G-50 columns with the relevant Tris buffer as eluent. Both extrusion and filtration was performed at 22° C. In the liposome leakage assay, the well known self-quenching of CF was used. Thus, at 100 mM CF is self-quenched, and the recorded fluorescence intensity from liposomes with entrapped CF is low. […] The CF release was determined by monitoring the emitted fluorescence at 520 nm from a liposome dispersion, ([…] in 10 mM Tris pH 7.4). An absolute leakage scale is obtained by disrupting the liposomes at the end of the experiment through addition of 0.8 mM Triton X100 (Sigma, St Louis, Mo.), thereby causing 100% release and dequenching of CF. A SPEX-fluorolog 1650 0.22-m double spectrometer (SPEX Industries, Edison, N.J.) was used for the liposome leakage assay (see Table 3, FIG. 3).

[2] = CD-spectroscopy, helical content; format: physicochemical; details: 10 mM Tris, pH 7.4, 37° C., peptide 10 μM; for Helical content, PA: PA liposome dispersion; for Helical content, PA / Helical content, PC: lipid 100 μM; for Helical content, PC: PC liposome dispersion; for Helical content, Buffer: buffer only
Description: The CD spectra of the peptides in solution were measured on a Jasco J-810 Spectropolarimeter (Jasco, U.K.). The measurements were performed at 37° C. in a 10 mm quartz cuvet under stirring and the peptide concentration was 10 μM. The effect of on peptide secondary structure of liposomes at a lipid concentration of 100 μM was monitored in the range 200-250 nm. The only peptide conformations observed under the conditions investigated were α-helix and random coil. The fraction of the peptide in α-helical conformation, Xα, is calculated from Xα=(A−Ac)/(Aα−Ac) (1)
where A is the recorded CD signal at 225 nm, and Aα and Ac are the CD signal at 225 nm for a reference peptide in 100% α-helix and 100% random coil conformation, respectively. 100% α-helix and 100% random coil references were obtained from 0.133 mM (monomer concentration) poly-L-lysine in 0.1 M NaOH and 0.1 M HCl, respectively. To account for the instrumental differences between measurements the background value (detected at 250 nm, where no peptide signal is present) was subtracted. Signals from the bulk solution were also corrected for (see Table 4).

[3] = Liposome leakage assay (carboxyfluorescein), PC liposomes; format: biochemical; details: dioleoylphosphatidylcholine 60 mol %/cholesterol 40 mol % liposomes, scale 100% = Triton X100 release, unit not in table; for CF leakage PC + NaCl: 10 mM Tris pH 7.4, with 150 mM NaCl; for CF leakage PC − NaCl: 10 mM Tris pH 7.4, without NaCl
Description: as §1

S.aureus ATCC 29213 = experiment: Radial diffusion assay (RDA), S. aureus; format: cell-based, Staphylococcus aureus; details: zone of bacterial clearance in RDA; unit mm only in FIG. 1 legend, not in Table 2A
Description: (§2) Escherichia coli ATCC25922, Pseudomonas aeruginosa ATCC27853, Staphylococcus aureus ATCC29213, Bacillus subtilis ATCC6633 bacterial isolates, and the fungal isolate Candida albicans ATCC90028, were obtained from the Department of Bacteriology, Lund University Hospital.
(§3) Radial diffusion assays (RDA) were performed essentially as described earlier (Lehrer, R. I., Rosenman, M., Harwig, S. S., Jackson, R. & Eisenhauer, P. (1991) Ultrasensitive assays for endogenous antimicrobial polypeptides, J Immunol Methods. 137, 167-73.).
(§4) Briefly, bacteria (E. coli, P. aeruginosa, S. aureus, B. subtilis) or fungi (C. albicans) were grown to mid-logarithmic phase in 10 ml of full-strength (3% w/v) trypticase soy broth (TSB) (Becton-Dickinson, Cockeysville, Md.). The microorganisms were washed once with 10 mM Tris, pH 7.4. 4×10^6 bacterial cfu or 1×10^5 fungal cfu was added to 5 ml of the underlay agarose gel, consisting of 0.03% (w/v) TSB, 1% (w/v) low-electroendoosmosistype (Low-EEO) agarose (Sigma, St Louise Mo.) and a final concentration of 0.02% (v/v) Tween 20 (Sigma). The underlay was poured into a Ø85 mm petri dish. After agarose solidified, 4 mm-diameter wells were punched and 6 μl of test sample was added to each well. Plates were incubated at 37° C. for 3 hours to allow diffusion of the peptides. […]

E.coli ATCC 25922 = experiment: Radial diffusion assay (RDA), E. coli; format: cell-based, Escherichia coli; details: zone of bacterial clearance in RDA; unit mm only in FIG. 1 legend, not in Table 2A
Description: as §2, §3, §4

[4] = Antimicrobial activity stated in text, microorganism not specified; format: cell-based; details: statement in words, no organism or method given

Molecule | Erythrocytes Hemolysis (%) Mean (Erythrocytes) [%] | CF leakage PA + NaCl [1] [%] | CF leakage PA − NaCl [1] [%] | Helical content, PA [2] [%] | Helical content, PC [2] [%] | Helical content, Buffer [2] [%] | CF leakage PC + NaCl [3] [%] | CF leakage PC − NaCl [3] [%] | Bacteria S.aureus ATCC 29213 Mean (S.aureus ATCC 29213) [mm] | Bacteria E.coli ATCC 25922 Mean (E.coli ATCC 25922) [mm] | antimicrobial effect [4]
CC[C@H](C)[C@H](NC(=O)[C@H](CCCCN)NC(=O)[C@H](CCC(=O)O)NC(=O)[C@H](CCCCN)NC(=O)[C@H](CO)NC(=O)[C@H](CCCCN)NC(=O)[C@H](CCCNC(=N)N)NC(=O)[C@H](Cc1ccccc1)NC(=O)[C@H](Cc1ccccc1)NC(=O)[C@H](CC(=O)O)NC(=O)CNC(=O)[C@H](CC(C)C)NC(=O)[C@@H](N)CC(C)C)C(=O)NCC(=O)N[C@@H](CCCCN)C(=O)N[C@@H](CCC(=O)O)C(=O)N[C@@H](Cc1ccccc1)C(=O)N[C@@H](CCCCN)C(=O)N[C@@H](CCCNC(=N)N)C(=O)N[C@H](C(=O)N[C@H](C(=O)N[C@@H](CCC(N)=O)C(=O)N[C@@H](CCCNC(=N)N)C(=O)N[C@H](C(=O)N[C@@H](CCCCN)C(=O)N[C@@H](CC(=O)O)C(=O)N[C@@H](Cc1ccccc1)C(=O)N[C@@H](CC(C)C)C(=O)N[C@@H](CCCNC(=N)N)C(=O)N[C@@H](CC(N)=O)C(=O)N[C@@H](CC(C)C)C(=O)N[C@H](C(=O)N1CCC[C@H]1C(=O)N[C@@H](CCCNC(=N)N)C(=O)N[C@H](C(=O)N[C@@H](CCC(=O)O)C(=O)N[C@@H](CO)C(=O)O)[C@@H](C)O)C(C)C)[C@@H](C)CC)C(C)C)[C@@H](C)CC [LL-37] | 16.43 | – | – | – | – | – | – | – | – | – | –
GKYGIYTKVSRYVNWIKEKTKLT (listed as Homo sapiens) [GKY23, FA9_HUMAN aa 439-461] | – | 30 ± 5 | 86 ± 4 | 29 ± 2 | 21 ± 2 | 7 ± 2 | 19 ± 1 | 86 ± 7 | – | – | –
CQKRYRGHKITHKMIC (listed as Homo sapiens) [CQK16, FA11_HUMAN aa 545-560] | – | 15 ± 2 | 18 ± 5 | 8 ± 2 | 10 ± 2 | 10 ± 2 | 14 ± 4 | 64 ± 3 | – | – | –
CC(C)C[C@H](NC(=O)[C@H](Cc1c[nH]c2ccccc12)NC(=O)[C@H](CCCCN)NC(=O)[C@H](CCCCN)NC(=O)[C@H](CC(C)C)NC(=O)[C@H](CCCNC(=N)N)NC(=O)[C@H](Cc1ccccc1)NC(=O)[C@@H](N)CC(C)C)C(=O)N[C@@H](CCC(N)=O)C(=O)N[C@@H](CCCCN)C(=O)N[C@H](C(=O)N[C@H](C(=O)N[C@@H](CCCCN)C(=O)N[C@@H](CCC(N)=O)C(=O)N[C@@H](Cc1ccccc1)C(=O)NCC(=O)N[C@@H](CCC(=O)O)C(=O)O)[C@@H](C)O)C(C)C [SEQ ID NO:34, LFRIKKWLQKVTKQFGE] | – | – | – | – | – | – | – | – | 4.75 | 6.65 | –
NWRENLDRDIALMKLKKP (listed as Homo sapiens) [NVR18] | – | 0 ± 1 | 2 ± 1 | – | – | – | 0 ± 1 | 4 ± 1 | – | – | –
LFRLKKWIRKVTRLFG [SEQ ID NO:9, LFRLKKWIRKVTRLFG] | – | – | – | – | – | – | – | – | 8.59 | 11.03 | displayed antimicrobial activity
SEKTLRKWLKMFKKRQLELY (listed as Homo sapiens) [SEK20] | – | 16 ± 1 | 64 ± 2 | 38 ± 4 | 34 ± 4 | 14 ± 2 | 17 ± 5 | 98 ± 2 | – | – | –
